Results reported in patent US8101761B2, “(E)-N-{3-[1-(8-fluoro-11H-10-OXA-1-AZA-dibenzo [A,D] cyclohepten-5ylidene)-propyl]-phenyl}-methanesulfonamide as glucocorticoid receptor modulator for the treatment of rheumatoid arthritis” (Eli Lilly and Company, priority 2008, dated 2012).

Tests used:
[1] = molecular target: T1, human androgen receptor (AR) (Homo sapiens, UniProt P10275); assay: Nuclear hormone receptor functional modulation assay (probasin ARE-luciferase reporter, HEK293), AR; type: cell-based; details: agonist mode, mean of n=4 or 5
T1 construct: expressed in transfected cells; host or cells: HEK293, transient transfection, CMV promoter plasmid
T1 sequence (P10275 1-920): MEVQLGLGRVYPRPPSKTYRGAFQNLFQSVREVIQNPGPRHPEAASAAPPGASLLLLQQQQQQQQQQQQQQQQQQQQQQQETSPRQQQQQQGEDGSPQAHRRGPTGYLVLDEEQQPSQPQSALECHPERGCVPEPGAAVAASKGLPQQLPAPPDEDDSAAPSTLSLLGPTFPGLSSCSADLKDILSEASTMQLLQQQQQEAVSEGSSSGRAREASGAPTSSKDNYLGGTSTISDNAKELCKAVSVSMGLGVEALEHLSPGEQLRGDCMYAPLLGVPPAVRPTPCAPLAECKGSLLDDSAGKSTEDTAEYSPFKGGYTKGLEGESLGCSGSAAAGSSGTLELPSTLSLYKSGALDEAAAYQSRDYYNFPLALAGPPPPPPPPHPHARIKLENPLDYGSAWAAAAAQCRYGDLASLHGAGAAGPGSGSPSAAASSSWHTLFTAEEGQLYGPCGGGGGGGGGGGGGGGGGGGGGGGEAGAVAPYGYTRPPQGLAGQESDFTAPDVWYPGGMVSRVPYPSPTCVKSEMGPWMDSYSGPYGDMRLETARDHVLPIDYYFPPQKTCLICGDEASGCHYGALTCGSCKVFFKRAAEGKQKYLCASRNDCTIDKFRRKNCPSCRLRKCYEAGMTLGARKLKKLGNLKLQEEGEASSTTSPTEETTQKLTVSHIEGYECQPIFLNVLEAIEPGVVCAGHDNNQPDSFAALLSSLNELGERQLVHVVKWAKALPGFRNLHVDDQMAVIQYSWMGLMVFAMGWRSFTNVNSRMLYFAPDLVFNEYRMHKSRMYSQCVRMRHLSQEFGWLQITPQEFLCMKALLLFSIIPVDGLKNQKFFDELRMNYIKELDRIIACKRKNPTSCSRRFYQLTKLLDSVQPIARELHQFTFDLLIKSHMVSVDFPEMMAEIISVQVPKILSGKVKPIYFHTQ
From the text: The solvents, reagents, and ligands employed in the functional assay are readily available from commercial sources, or can be prepared by one of ordinary skill in the art.
Human embryonic kidney HEK293 cells are transfected with steroid hormone receptor and reporter gene plasmids using Fugene™ transfection reagent. Briefly, the reporter plasmid containing two copies of probasin ARE and TK(thymidine kinase) promoter upstream of the luciferase reporter cDNA, is transfected into HEK293 cells with a plasmid constitutively expressing human androgen receptor (AR) using viral CMV(cytomegalovirus) promoter. The reporter plasmid containing two copies of GRE and TK promoter upstream of the luciferase reporter cDNA is transfected with a plasmid constitutively expressing either human glucocorticoid receptor (GR), human mineralocorticoid receptor (MR), or human progesterone receptor (PR) using viral CMV promoter. […] After 24-hours incubation with test compounds, cells are lysed and luciferase activity is determined using standard techniques.
Data are fitted to a four parameter-fit logistic curve fit to determine EC50 values. […] IC50 values may be determined similarly using antagonist mode assay data. Percent inhibitions may also be determined relative to the response in the presence of agonist alone, as described above.

[2] = tested on: IL-6 production in human skin fibroblast CCD-39SK cells; assay: GR-mediated transrepression: IL-1β-stimulated IL-6 production in human skin fibroblast CCD-39SK cells; type: cell-based; details: IL-1β 1 ng/ml
Method: 1. IL-1,3-stimulated IL-6 Production in Human Skin Fibroblast CCD-39SK Cells:
Briefly, human skin fibroblast CCD-39SK cells (20,000 cells/well), obtained from ATCC are seeded in 96-well plates in […] growth medium supplemented with 10% FBS, 100 U/ml penicillin, 100 ug/ml streptomycin and 2 mmol/L L-glutamine. Cells are maintained in a humidified chamber with 5% CO2 at 37° C. Test compounds are added to the wells in various concentrations ranging from a final concentration of about […] to 4.64 μM. 0.1 μM of dexamethasone is used as a positive control. 1-hour post treatment with test compound, IL-1β is added at final concentration of 1 ng/ml; and the reaction mixture is incubated overnight. 10 μl of supernatant is removed from each well and IL-6 concentrations are determined using an ELISA kit, with IL-6 concentrations being quantified by reading absorbance at 450 nm.

For `CC/C(=C1\c2ccc(F)cc2OCc2ncccc21)c1cccc(NS(C)(=O)=O)c1` [Compound (I), (E)-N-{3-[1-(8-Fluoro-11H-10-oxa-1-aza-dibenzo[a,d]cyclohepten-5-ylidene)-propyl]-phenyl}-methanesulfonamide], the “efficacy in activating transcription, AR” value ([1]; relative to 100 nM methyltrienolone) was “about 4.4%”, the EC50 ([1]; read-out: EC50 in activating transcription, AR) was > 10000 nM and the IC50 ([2]; Homo sapiens, Skin fibroblast, average of n=15, read-out: IC50, inhibition of IL-6 expression) was ~8.5 nM. The “maximal inhibition of the endogenous expression of IL-6” value ([2]; n=15) was ≥ 90%.
